Test results: patent US11578079B2, “SUMO inhibitor compounds and uses thereof” (CITY OF HOPE, priority 2018, dated 2023)

What was measured:
Set-up in all cases: key: + (less active); ++ (active); +++ (most active)
SUMO = molecular target: T1, SUMO (Homo sapiens, UniProt Q9UBT2); assay: SUMO activity (Table I, biological activities); assay type: biochemical
T1 sequence (Q9UBT2 1-640): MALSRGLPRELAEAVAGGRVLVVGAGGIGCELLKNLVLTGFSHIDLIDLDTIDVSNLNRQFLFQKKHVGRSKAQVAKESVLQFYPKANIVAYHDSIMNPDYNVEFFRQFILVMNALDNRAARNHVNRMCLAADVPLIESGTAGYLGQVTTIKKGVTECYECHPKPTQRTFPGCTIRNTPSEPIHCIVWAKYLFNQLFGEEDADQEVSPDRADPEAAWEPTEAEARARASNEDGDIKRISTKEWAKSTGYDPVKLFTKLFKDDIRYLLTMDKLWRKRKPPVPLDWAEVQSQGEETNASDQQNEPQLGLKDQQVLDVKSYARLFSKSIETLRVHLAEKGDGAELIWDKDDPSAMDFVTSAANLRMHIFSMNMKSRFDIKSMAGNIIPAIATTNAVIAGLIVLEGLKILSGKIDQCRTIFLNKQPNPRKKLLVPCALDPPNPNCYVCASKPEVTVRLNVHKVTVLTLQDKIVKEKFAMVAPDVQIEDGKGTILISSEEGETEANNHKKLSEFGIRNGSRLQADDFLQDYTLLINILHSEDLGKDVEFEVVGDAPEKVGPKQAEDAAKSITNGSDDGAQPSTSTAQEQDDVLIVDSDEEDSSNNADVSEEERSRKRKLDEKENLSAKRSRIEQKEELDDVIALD
T1 sequence (Q9UBE0 1-346 partner): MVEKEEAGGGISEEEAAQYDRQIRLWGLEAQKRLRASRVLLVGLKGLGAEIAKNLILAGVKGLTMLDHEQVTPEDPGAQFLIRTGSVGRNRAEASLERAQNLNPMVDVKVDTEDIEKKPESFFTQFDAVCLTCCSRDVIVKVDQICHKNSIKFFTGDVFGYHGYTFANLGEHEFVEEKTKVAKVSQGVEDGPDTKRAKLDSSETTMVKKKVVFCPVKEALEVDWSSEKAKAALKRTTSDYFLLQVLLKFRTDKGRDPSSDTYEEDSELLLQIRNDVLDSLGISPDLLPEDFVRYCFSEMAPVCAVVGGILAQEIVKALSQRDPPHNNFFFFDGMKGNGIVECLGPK

Atg7 = molecular target: T2, Atg7 (Homo sapiens, UniProt O95352); assay: Atg7 activity (Table I, biological activities); assay type: biochemical
T2 sequence (O95352 1-703): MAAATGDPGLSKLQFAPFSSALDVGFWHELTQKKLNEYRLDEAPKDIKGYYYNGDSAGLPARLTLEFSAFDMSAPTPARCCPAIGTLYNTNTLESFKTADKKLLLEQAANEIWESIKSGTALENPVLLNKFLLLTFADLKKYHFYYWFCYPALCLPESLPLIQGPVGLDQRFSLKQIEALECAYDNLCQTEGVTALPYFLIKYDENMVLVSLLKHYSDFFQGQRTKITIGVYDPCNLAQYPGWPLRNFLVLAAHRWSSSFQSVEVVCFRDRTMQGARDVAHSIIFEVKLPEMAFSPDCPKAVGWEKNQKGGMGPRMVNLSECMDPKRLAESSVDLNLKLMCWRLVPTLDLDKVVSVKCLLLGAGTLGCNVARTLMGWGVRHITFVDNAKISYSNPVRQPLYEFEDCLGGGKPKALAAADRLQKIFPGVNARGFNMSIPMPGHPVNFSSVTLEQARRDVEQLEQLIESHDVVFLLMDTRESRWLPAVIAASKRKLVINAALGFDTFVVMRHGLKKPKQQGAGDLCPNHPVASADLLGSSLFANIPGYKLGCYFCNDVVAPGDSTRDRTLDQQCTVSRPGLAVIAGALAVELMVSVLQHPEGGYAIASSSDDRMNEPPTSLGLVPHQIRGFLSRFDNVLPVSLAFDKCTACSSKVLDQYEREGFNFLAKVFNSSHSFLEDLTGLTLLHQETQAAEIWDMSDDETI

c-Myc = c-Myc activity (Table I, biological activities)
Nedd8 = molecular target: T3, Nedd8 (Homo sapiens, UniProt Q8TBC4); assay: Nedd8 activity (Table I, biological activities); assay type: biochemical
T3 sequence (Q8TBC4 1-463): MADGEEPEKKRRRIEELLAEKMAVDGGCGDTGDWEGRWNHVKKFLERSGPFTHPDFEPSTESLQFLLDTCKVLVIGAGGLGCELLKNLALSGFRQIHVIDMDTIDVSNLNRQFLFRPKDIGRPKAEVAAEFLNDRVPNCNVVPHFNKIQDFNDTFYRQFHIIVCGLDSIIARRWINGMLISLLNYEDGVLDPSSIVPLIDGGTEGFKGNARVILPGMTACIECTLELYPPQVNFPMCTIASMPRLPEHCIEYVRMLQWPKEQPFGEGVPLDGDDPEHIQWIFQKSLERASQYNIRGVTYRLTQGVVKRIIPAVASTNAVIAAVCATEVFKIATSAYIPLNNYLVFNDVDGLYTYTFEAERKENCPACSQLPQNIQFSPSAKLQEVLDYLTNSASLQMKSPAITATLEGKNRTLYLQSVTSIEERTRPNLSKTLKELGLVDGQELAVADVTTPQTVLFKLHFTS
T3 sequence (Q13564 1-534 partner): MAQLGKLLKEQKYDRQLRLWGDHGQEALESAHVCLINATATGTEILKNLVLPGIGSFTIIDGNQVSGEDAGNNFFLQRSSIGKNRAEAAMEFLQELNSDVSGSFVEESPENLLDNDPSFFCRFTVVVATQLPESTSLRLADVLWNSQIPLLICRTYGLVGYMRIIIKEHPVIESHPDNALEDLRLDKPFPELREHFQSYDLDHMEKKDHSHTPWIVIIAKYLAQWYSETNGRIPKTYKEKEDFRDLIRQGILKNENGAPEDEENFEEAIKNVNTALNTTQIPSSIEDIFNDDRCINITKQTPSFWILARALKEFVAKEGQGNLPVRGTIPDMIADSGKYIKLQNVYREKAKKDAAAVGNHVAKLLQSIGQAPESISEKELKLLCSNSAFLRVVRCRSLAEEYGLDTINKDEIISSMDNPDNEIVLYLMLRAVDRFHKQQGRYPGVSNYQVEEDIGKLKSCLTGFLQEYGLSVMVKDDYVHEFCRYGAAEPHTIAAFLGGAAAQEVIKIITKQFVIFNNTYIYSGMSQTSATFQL

Ubiquitin = molecular target: T4, Ubiquitin (Homo sapiens, UniProt P22314); assay: Ubiquitin activity (Table I, biological activities); assay type: biochemical
T4 sequence (P22314 1-1058): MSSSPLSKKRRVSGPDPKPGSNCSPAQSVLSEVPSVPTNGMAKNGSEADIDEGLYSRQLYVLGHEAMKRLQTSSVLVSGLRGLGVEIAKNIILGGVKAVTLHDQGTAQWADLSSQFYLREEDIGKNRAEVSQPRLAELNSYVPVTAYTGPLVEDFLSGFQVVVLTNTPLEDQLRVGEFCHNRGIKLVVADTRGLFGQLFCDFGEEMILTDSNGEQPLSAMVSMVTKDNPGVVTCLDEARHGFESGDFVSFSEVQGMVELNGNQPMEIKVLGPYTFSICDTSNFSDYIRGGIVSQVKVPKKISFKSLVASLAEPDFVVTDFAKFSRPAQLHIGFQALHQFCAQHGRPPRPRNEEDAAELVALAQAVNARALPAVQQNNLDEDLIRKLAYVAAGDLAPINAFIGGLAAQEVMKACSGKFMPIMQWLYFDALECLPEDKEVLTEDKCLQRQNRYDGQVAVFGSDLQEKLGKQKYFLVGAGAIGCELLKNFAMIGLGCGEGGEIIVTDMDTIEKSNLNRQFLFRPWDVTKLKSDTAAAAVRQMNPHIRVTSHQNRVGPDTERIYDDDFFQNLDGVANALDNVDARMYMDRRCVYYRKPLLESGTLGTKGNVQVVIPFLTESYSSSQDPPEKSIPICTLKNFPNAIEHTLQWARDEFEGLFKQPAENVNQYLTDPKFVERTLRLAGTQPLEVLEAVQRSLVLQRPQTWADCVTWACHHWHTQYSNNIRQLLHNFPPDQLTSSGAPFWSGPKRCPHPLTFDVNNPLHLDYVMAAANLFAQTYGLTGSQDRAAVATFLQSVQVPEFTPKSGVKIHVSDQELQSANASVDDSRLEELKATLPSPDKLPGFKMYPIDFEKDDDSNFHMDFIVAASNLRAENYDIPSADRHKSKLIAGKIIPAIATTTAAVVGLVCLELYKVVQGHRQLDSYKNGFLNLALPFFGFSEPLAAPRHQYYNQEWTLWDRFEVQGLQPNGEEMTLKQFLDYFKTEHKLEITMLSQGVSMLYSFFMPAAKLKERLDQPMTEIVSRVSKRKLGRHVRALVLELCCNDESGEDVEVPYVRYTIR

SMILES	SUMO (SUMO)	Atg7 (Atg7)	c-Myc (c-Myc)	Nedd8 (Nedd8)	Ubiquitin (Ubiquitin)
COC(=O)C1=C(C(=O)NCCN2CCCCC2)C2C=CC1(C(Cc1ccccc1)Nc1ccccc1)O2 (stereo not drawn) [Compound 462]	++	++	++		
COC(=O)C1=C(C(=O)NCCN2CCN(C)CC2)C2C=CC1(C(Cc1ccccc1)Nc1ccccc1)O2 (stereo not drawn) [Compound 463]	++	++	++		
Cc1ccc(S(=O)(=O)C2=CC3(C)C=CC2(C(Cc2ccccc2)Nc2ccccc2)O3)cc1 (stereo not drawn) [Compound 531]	+			++	
COC(=O)C1=C(C(=O)Nc2ccc(OCCN(C)C)cc2)C2OC1(C(Cc1ccccc1)Oc1ccccc1)C1OC21 (stereo not drawn) [Compound 534]	+		++	++	+
COC(=O)C1=C(C(N)=O)C2C=CC1(C(Cc1ccccc1)Nc1cccc(CO)c1)O2 (stereo not drawn) [Compound 536]	++			++	+
COC(=O)C1=C(C(=O)Nc2ccc(OC)cc2)C2C=CC1(C(Cc1ccccc1)Nc1cccc(CO)c1)O2 (stereo not drawn) [Compound 537]	++		+	++	
COC(=O)C1=C(C(N)=O)C2C=CC1(C(Cc1ccccc1)Nc1ccc(F)cc1)O2 (stereo not drawn) [Compound 540]	++		++	++	
COC(=O)C1=C(C(=O)NC2CCN(C)CC2)C2OC1(C(Cc1ccccc1)Oc1ccccc1)C1OC21 (stereo not drawn) [Compound 541]	++		++	++	
COC(=O)C1=C(C(=O)Nc2ccc(CN(C)C)cc2)C2OC1(C(Cc1ccccc1)Oc1ccccc1)C1OC21 (stereo not drawn) [Compound 545]	++		++		+
COC(=O)C1=C(CO)C2C=CC1(C(Cc1ccccc1)Oc1ccccc1)O2 (stereo not drawn) [Compound 584]	+	++	++		
CCOC(=O)C1=CC2OC1(C(c1ccccc1)N(C(=O)C(F)(F)F)c1ccccc1)c1ccccc12 (stereo not drawn) [Compound 585]	+	+	++		
CCOC(=O)C1=C(C(=O)Nc2ccc(OC)cc2OC)C2C=CC1(C(Nc1ccccc1)c1ccc(CN3CCOCC3)cc1)O2 (stereo not drawn) [Compound 610]	+		+		
CCOC(=O)C1=C(C(=O)Nc2ccc(C)c(F)c2)C2C=CC1(C(Nc1ccc(C#N)cc1)c1ccc(CN3CCOCC3)cc1)O2 (stereo not drawn) [Compound 612]	+		+		
CCOC(=O)C1=C(C(=O)Nc2ccc(C)c(F)c2)C2C=CC1(C(Nc1ccc(C)cc1)c1ccc(CN3CCOCC3)cc1)O2 (stereo not drawn) [Compound 613]	+		+		
CCOC(=O)C1=C(C(=O)Nc2ccc(C)c(F)c2)C2C=CC1(C(Nc1cccc(OC)c1)c1ccc(CN3CCOCC3)cc1)O2 (stereo not drawn) [Compound 615]	+		+		
CCOC(=O)C1=C(C(=O)Nc2c(C)cccc2CC)C2C=CC1(C(Nc1ccccc1)c1ccc(CN3CCOCC3)cc1)O2 (stereo not drawn) [Compound 617]	++		++		
COC(=O)C1=C(C(=O)NCCN(C)C)C2(C)C=CC1(C(Cc1ccccc1)Nc1ccccc1)O2 (stereo not drawn) [Compound 619]	++	+	+		
CCOC(=O)C1=C(C(=O)Nc2ccc(C)c(F)c2)C2C=CC1(C(Nc1ccc(OC)cc1)c1ccc(CN3CCOCC3)cc1)O2 (stereo not drawn) [Compound 621]	+		+		
CCOC(=O)C1=C(C(=O)Nc2ccc(C)c(F)c2)C2C=CC1(C(Nc1cccc(C)c1)c1ccc(CN3CCOCC3)cc1)O2 (stereo not drawn) [Compound 623]	++		+		
CCOC(=O)C1=CC2OC1(C(Nc1ccccc1)c1ccccc1)c1ccccc12 (stereo not drawn) [Compound 625]	+		+		
COC(=O)C1=C(CO)C2(C)C=CC1(C(Cc1ccccc1)Oc1ccccc1)O2 (stereo not drawn) [Compound 626]	+	++			
